Measurements as given in paper PMC10327353 (Breast Cancer Research : BCR, 2023).

Legend:
[1] = system: BT474C1 cells; assay: Cell proliferation assay (CellTiter-Glo), BT474C1; assay type: cell-based, human; details: BT474C1, 72 hrs
Experimental: BT474C1-Luci Mono1 cells were seeded in 384-well plates at 1500 cells/well in DMEM medium containing 10% FBS and 1 mM Oxaloacetic acid (OAA). A431 cells were seeded in 384-well plates at 1,000 cells/well in DMEM medium containing 10% FBS. After overnight incubation, cells were treated with compounds at various concentrations for 3 days. Then cell viability was measured using a CellTiter-Glo Luminescent Cell Viability Assay from Promega Corp. according to the manufacturer's instructions.

[2] = Human hepatocyte intrinsic clearance; assay type: in vitro ADME; details: human hepatocytes; for hepatocyte CLint: read-out: Human Heps Clint
[3] = molecular target: HER2 (Homo sapiens, UniProt P04626); assay: pHER2 MSD assay in BT474C1 cells; assay type: cell-based; design: endogenous in cells; host or cells: BT474C1-Luci Mono1 (BT474 transfected with luciferase only); details: BT474C1, 4 hrs treatment
Experimental: (§1) A431 and BT474C1-Luci Mono1 cells were seeded in 96-well plates at 20,000 cells/well in DMEM medium containing 1% FBS. After overnight incubation, all cells were treated with compounds at a series of concentrations for 4 hrs. For A431 cell line, an extra stimulation with recombinant human EGF (100 ng/ml for 10 minutes) is applied to activate wild-type EGFR following compound treatment. pEGFR^Y1068 and total EGFR levels were measured by an electro chemiluminescent method (MULTI-SPOT®96 4-Spot HB Prototype EGFR Triplex […]: pEGFR (Y1068), Total EGFR; MESO SCALE DISCOVERY, Cat# N45ZB-1) with MSD SECTOR® Imager, which outputs the ratio of pEGFR/total EGFR for each well. pHER2^Y1248 and total HER2 levels were measured similarly using pHER2 (Y1248) Assay Whole Cell Lysate Kit (MESO SCALE DISCOVERY, Cat# K151CLD-3). The percentage of inhibition was calculated as: % Inhibition = 100 x [1 - (ratio of the sample well - ratio of Min ctrl well)/ (ratio of Max ctrl well - ratio of Min ctrl well)].

[4] = molecular target: T1, wild-type EGFR (Homo sapiens, UniProt P00533); assay: pEGFR MSD assay in A431 cells; assay type: cell-based; details: A431, 4 hrs treatment, EGF stimulation
T1 construct: endogenous in cells; host or cells: A431
Experimental: as §1

[5] = molecular target: T2, P-gp (MDR1) (Homo sapiens, UniProt P08183); assay: P-gp efflux ratio, bi-directional transport assay; assay type: in vitro ADME
T2 construct: expressed in transfected cells; host or cells: MDCKII-MDR1
Excerpt: Passive permeability (Papp) characterizes the rate across the cell membrane due to passive diffusion. A high permeability enables the rapid establishment of equilibrium among plasma, CSF, and brain compartments. Except for passive permeability, sufficient unbound drug concentration in the brain is governed by efflux transporters, including P-gp (MDR1, ABCB1) and BCRP, at BBB. Efflux ratio (ER) reflects the liability of a compound to be pumped out of the brain by BBB efflux transporters, which is indicated by the distribution disequilibrium between the plasma and the brain compartments.
[…] The adjusted efflux ratio was used to determine if DZD1516/DZ2678 underwent active efflux. Verapamil, a P-glycoprotein (P-gp) inhibitor, was used to identify if any active transport processes were mediated through P-gp. The apical-to-basolateral (A-B) and basolateral-to-apical (B-A) transport of DZD1516/DZ2678 in HBSS (25 mM HEPES, pH 7.4) with 0.1% BSA was measured across MDCKII-MDR1 cell monolayers in the absence and presence of the P-gp inhibitor, verapamil (100 μM). The apical-to-basolateral (A-B) and basolateral-to-apical (B-A) transport of DZD1516/DZ2678 in HBSS (25 mM HEPES, pH 7.4) with 0.1% BSA was also measured across MDCKII cell monolayers in the absence and presence of the P-gp inhibitor, verapamil. Incubations were performed at approximately 37°C for 120 min, with the functionality of the test system being confirmed using 5 μM digoxin as a positive control substrate. […] determined by quantifying substrate concentration in the incubation medium of the donor compartment at the beginning of the incubation period and both donor and receiver compartments at the end of the incubation period. The data was used to calculate the apparent permeability (Papp). All incubations were performed in triplicate, and the integrity of the cell monolayers was confirmed using the marker Lucifer yellow.

[6] = system: P-gp-BCRP; assay: P-gp-BCRP efflux ratio, cellular transport assay; assay type: in vitro ADME, human; details: human, not told; 1 µM
Experimental: A discussion of the structure–activity relationship (SAR) cumulated in the design of DZD1516 (Fig. 1) is as follows. The HER2 inhibitory potency screening for SAR development was performed using HER2 and EGFR enzymatic assays. The cellular activity was evaluated in HER2+ cell line BT474C1 by measuring pHER2 and antiproliferation activities. Cellular transport assays measuring the permeability and efflux ratio of compounds in cells expressing human P-gp (MDR1) and BCRP were used to provide essential information for assessing their BBB penetration potential.

Sequence of HER2 (P04626 23-1255): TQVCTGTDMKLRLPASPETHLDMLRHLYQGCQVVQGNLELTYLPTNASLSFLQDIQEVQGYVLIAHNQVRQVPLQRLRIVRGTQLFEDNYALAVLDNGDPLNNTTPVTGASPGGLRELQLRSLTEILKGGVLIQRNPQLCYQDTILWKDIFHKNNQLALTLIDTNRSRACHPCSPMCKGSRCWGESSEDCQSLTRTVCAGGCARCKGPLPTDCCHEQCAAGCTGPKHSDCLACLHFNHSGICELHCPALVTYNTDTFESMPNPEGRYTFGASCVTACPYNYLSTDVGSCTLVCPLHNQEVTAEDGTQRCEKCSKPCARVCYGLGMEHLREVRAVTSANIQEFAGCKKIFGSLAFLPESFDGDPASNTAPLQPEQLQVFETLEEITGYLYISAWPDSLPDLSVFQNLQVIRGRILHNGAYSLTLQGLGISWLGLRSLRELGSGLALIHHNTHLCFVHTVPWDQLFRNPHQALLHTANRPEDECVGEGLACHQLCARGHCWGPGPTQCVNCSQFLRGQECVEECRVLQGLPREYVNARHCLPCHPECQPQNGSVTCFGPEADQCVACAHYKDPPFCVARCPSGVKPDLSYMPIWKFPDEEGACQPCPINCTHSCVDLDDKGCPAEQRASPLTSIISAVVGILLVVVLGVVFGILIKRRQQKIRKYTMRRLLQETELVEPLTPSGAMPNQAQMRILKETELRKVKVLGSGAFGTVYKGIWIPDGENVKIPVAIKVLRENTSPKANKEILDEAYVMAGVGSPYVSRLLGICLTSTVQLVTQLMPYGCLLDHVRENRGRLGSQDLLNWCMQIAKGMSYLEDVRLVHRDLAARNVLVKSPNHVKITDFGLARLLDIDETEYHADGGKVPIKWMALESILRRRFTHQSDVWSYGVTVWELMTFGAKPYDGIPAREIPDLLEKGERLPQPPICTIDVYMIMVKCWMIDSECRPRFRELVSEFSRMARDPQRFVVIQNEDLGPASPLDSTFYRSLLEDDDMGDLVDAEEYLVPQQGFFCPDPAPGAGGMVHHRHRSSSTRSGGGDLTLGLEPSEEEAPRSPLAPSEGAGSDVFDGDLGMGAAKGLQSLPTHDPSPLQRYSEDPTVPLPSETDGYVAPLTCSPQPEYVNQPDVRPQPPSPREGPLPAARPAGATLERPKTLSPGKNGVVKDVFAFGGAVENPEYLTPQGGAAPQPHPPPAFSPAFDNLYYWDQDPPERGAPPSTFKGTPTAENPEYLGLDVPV
T2 sequence (P08183 whole entry): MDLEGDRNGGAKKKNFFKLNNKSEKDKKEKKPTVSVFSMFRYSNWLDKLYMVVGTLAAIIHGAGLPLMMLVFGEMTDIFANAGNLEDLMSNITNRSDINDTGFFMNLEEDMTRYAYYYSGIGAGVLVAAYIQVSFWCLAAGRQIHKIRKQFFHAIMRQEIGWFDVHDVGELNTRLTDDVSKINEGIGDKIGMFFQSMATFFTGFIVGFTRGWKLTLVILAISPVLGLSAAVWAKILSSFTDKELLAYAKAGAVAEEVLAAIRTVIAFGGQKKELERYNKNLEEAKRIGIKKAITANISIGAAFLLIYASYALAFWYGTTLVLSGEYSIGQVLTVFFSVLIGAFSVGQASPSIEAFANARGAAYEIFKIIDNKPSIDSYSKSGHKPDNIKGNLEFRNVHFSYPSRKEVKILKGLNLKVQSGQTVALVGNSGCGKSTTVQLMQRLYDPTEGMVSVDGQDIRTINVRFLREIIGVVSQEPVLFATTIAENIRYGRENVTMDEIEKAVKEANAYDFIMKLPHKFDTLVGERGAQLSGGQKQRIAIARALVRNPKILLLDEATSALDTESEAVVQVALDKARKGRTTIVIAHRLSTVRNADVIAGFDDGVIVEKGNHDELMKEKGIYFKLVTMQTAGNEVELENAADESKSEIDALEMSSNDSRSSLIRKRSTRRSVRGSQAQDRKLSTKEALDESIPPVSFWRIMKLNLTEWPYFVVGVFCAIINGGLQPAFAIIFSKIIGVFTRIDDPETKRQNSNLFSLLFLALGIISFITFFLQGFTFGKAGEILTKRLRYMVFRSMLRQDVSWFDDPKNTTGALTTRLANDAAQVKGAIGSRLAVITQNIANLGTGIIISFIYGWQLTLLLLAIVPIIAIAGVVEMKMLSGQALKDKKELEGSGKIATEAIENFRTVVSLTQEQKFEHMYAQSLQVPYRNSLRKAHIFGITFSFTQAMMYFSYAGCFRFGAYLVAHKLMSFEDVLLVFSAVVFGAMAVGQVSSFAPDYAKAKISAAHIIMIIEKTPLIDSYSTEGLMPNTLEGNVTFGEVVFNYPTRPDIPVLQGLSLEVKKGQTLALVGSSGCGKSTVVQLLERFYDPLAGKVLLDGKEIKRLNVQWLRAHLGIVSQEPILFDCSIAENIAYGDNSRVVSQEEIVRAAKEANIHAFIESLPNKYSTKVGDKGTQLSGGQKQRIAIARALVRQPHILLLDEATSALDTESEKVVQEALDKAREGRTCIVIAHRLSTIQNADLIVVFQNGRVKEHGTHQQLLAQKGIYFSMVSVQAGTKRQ
T1 sequence (P00533 25-1210): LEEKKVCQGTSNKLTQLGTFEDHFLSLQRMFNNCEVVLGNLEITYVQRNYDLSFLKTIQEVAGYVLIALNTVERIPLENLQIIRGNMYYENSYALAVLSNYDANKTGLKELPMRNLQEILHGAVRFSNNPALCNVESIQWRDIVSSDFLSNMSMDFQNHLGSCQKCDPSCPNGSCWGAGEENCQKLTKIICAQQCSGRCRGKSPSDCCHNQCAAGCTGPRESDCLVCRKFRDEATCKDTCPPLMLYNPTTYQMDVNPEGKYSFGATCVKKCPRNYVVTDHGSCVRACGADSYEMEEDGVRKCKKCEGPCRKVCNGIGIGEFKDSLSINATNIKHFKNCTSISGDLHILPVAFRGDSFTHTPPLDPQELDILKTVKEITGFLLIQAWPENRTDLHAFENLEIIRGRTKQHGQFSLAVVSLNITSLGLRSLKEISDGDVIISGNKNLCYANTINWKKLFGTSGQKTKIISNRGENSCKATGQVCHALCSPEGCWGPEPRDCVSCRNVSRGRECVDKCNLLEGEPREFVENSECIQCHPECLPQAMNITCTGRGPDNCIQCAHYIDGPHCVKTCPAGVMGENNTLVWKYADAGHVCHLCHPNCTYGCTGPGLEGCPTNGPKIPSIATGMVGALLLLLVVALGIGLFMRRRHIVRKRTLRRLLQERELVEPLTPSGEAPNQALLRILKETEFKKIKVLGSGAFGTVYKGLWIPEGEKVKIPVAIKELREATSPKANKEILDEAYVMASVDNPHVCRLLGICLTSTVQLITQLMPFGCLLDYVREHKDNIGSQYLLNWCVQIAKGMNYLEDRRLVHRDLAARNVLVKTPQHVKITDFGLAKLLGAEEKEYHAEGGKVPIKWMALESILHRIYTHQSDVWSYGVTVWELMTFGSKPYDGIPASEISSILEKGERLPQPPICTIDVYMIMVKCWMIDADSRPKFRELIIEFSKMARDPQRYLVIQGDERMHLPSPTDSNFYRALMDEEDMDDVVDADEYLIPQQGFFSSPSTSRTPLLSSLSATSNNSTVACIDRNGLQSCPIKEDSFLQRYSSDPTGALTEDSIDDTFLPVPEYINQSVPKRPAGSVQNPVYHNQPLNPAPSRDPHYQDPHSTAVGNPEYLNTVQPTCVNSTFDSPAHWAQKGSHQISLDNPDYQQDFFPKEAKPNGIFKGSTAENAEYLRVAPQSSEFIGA

Structure (SMILES) | GI50 [1] [nM] | IC50 [3] [nM] | IC50 [4] [nM] | GI50 ([1]; Homo sapiens) [nM] | hepatocyte CLint [2] [µL/min/1e6 cells] | further results
COc1cc(O[C@@H]2CCN(C)CC2(F)F)c2c(Nc3ccc(Oc4ccn5ncnc5c4)c(C)c3)ncnc2c1 [Cpd-4] | 67 | 44 | – | – | – | Human Heps Clint [2]: 20.1 (µL/min)/(10^6 cells)
Cc1cc(Nc2ncnc3cccc(OC4CCN(C)CC4)c23)ccc1Oc1ccn2ncnc2c1 [Cpd-1] | 91 | 18 | > 10000 | – | – | Efflux ratio P-gp @1 µM [5]: 1.5
Cc1cc(Nc2ncnc3ccc(NC4=NC(C)(C)CO4)cc23)ccc1Oc1ccn2ncnc2c1 [Tucatinib, reference compound] | – | 1.7 | 2770 | 10 | 12.5 | efflux ratio at 120 min, 1 µM ([5]; human, MDCK-MDR1, pH 7.4): 6.2; efflux ratio at 1 µM [6]: 64
CS(=O)(=O)CCNCc1ccc(-c2ccc3ncnc(Nc4ccc(OCc5cccc(F)c5)c(Cl)c4)c3c2)o1 [Lapatinib] | – | – | – | 13 | – | –
CCOc1cc2ncc(C#N)c(Nc3ccc(OCc4ccccn4)c(Cl)c3)c2cc1NC(=O)/C=C/CN(C)C [Neratinib, reference compound] | – | – | – | 1.3 | 7.7 | –
CCOc1cc2ncc(C#N)c(Nc3ccc(OCc4ccccn4)c(Cl)c3)c2cc1NC(=O)/C=C/[C@H]1CCCN1C [Pyrotinib, reference compound] | – | 0.66 | – | 0.7 | – | –
